In assay [1] the test system is HT-29. Briefly: Inhibitory concentration value against human colon adenocarcinoma HT-29 tumor cell line. It is filed as functional, cell-based.
Assay [2] is described as follows: Inhibitory concentration value against human MEL-28 or human cancer HeLa tumor cell line. It is filed as functional, cell-based.
Assay [3] relates to A549. Briefly: Inhibitory concentration value against human A-549 tumor cell line. The format is functional, cell-based.
Assay [4] relates to HL-60. Briefly: Inhibitory concentration value against human colon carcinoma H-116 or human cancer HL-60 tumor cell line. The format is functional, cell-based.
The target of assay [5] is Tubulin beta chain (Bos taurus, UniProt Q6B856). Put plainly: In vitro inhibitory concentration value against bovine brain tubulin polymerization.
Assay [6] has as its system SK-MEL-28. Put plainly: Inhibitory concentration value against human MEL-28 tumor cell line. The format is functional, cell-based.
For assay [7], the system named is P388. Briefly: Inhibitory concentration value against murine P-388 tumor cell line. The format is functional, cell-based. Particulars: Mus musculus.
Assay [8] has as its system HCT-116. Put plainly: Inhibitory concentration value against human colon carcinoma H-116 tumor cell line. The format is functional, cell-based.

Chain of Tubulin beta chain (Q6B856 whole entry): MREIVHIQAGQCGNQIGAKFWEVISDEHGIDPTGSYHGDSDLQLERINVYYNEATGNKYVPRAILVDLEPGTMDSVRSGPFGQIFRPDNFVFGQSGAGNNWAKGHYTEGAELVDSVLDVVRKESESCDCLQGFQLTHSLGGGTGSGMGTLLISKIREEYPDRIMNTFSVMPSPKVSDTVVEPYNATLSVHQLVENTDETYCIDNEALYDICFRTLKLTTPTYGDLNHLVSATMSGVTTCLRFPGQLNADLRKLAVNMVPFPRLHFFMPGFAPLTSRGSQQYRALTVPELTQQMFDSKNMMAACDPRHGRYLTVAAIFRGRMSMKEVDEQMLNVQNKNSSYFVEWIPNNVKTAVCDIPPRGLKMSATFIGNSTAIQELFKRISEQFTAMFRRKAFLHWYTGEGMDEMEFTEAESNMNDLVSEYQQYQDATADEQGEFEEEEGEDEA

Broadly, the IC50 is the concentration that inhibits the measured activity by half. Low readings indicate inhibition by little substance, high ones a need for much substance. As to `COc1cc(/C=C/c2ccc3ccccc3c2)cc([N+](=O)[O-])c1OC`, the IC50 is more than 10000 nM in assay [1]; 3200 nM in assay [2]; more than 10000 nM in assay [3]; more than 10000 nM in assay [4]; more than 40000 nM in assay [5].

Turning to `COc1cccc(/C=C\c2ccc3ccccc3c2)c1`, the half-inhibitory concentration (IC50) in assay [1] is 1920 nM; in assay [6], 1920 nM; in assay [7], 1920 nM; in assay [3], 1920 nM; in assay [8], 1920 nM; in assay [5], more than 30000 nM.

With `COc1cc(/C=C\c2ccc3c(ccn3C)c2)cc(OC)c1OC`, the IC50 turned out to be 250 nM in assay [2], 330 nM in assay [4] and 2000 nM in assay [5].

Regarding `COc1cc(/C=C\c2ccc3[nH]ccc3c2)cc(OC)c1OC`, the half-maximal inhibitory concentration (IC50) in assay [1] stood at 35 nM; in assay [2], 34 nM; in assay [3] it was 390 nM; in assay [4] it was 35 nM; in assay [5], 25000 nM.

As to `COc1cc(/C=C\c2ccc(N(C)C)c(N)c2)cc(OC)c1OC`, the IC50 in assay [1] is 4 nM; in assay [2], 3 nM; in assay [3] it was 4 nM; in assay [4], 3 nM; in assay [5], more than 30000 nM.

With `COc1ccc(/C=C\c2cc(OC)c3ccccc3c2)cc1O`, the half-inhibitory concentration (IC50) in assay [1] stood at 3620 nM; in assay [6], 40 nM; in assay [7], 40 nM; in assay [2] it was 40 nM; in assay [3], 40 nM; in assay [4] it was 3620 nM. The half-maximal inhibitory concentration (IC50) in assay [8] came out at 40 nM; in assay [5], 16000 nM.

On to `COc1ccc(/C=C\c2ccc3ccccc3c2)cc1O`, for which the concentration for half-maximal inhibition (IC50) is 32 nM in assay [1]; 3 nM in assay [6]; 3 nM in assay [7]; 3 nM in assay [2]; 3 nM in assay [3]; 16 nM in assay [4]. Besides, the 50% inhibitory concentration (IC50) in assay [8] was found to be 16 nM; in assay [5], 3000 nM.

Regarding `COc1cc(/C=C/c2ccc3c(ccn3C)c2)cc(OC)c1OC`, the IC50 is 24 nM in assay [2], 27 nM in assay [4] and 30000 nM in assay [5].

Consider `COc1cc(/C=C/c2ccc3ccccc3c2)cc(OC)c1OC`, for which the IC50 in assay [1], in assay [6], in assay [7], in assay [2], in assay [3] and in assay [4] was 390 nM in each case. In assay [8], the 50% inhibitory concentration (IC50) turned out to be 390 nM.

With `COc1cc(/C=C/c2ccc3[nH]ccc3c2)cc(OC)c1OC`, the IC50 was 280 nM in assay [1]; 250 nM in assay [2]; 470 nM in assay [3]; 380 nM in assay [4]; more than 30000 nM in assay [5].

As for `COc1cc(/C=C\c2ccc3ccccc3c2)cc([N+](=O)[O-])c1OC`, the IC50 was 420 nM in assay [1]; 110 nM in assay [2]; 590 nM in assay [3]; 340 nM in assay [4]; 13000 nM in assay [5].

`COc1cc(/C=C\c2ccc3c(c2)c2ccccc2n3C)cc(OC)c1OC`: the IC50 in assay [1] was more than 10000 nM; in assay [2] it was 3100 nM; in assay [3], more than 10000 nM; in assay [4] it was more than 10000 nM; in assay [5], 6000 nM.

In the case of `COc1cc(/C=C/c2ccc3ccccc3c2)cc(N)c1OC`, the IC50 is 6000 nM in assay [1]; 460 nM in assay [2]; 2150 nM in assay [3]; 3150 nM in assay [4]; more than 40000 nM in assay [5].

On to `COc1cc(/C=C\c2ccc3ccccc3c2)cc(OC)c1OC` [NAPHTHYLCOMBRETASTATIN], for which the IC50 in assay [6] was 20 nM; in assay [7] it was 20 nM; in assay [2], 20 nM; in assay [4], more than 5000 nM; in assay [8], 20 nM; in assay [5] it was 10000 nM.

In the case of `COc1ccc(/C=C/c2cc(OC)c3ccccc3c2)cc1O`, the IC50 in assay [1], in assay [6], in assay [7], in assay [2], in assay [3] and in assay [4] was 3620 nM each time. 3620 nM corresponded to half-maximal inhibition in assay [8] (IC50).

Regarding `COc1cc(/C=C/c2ccc3c(c2)c2ccccc2n3C)cc(OC)c1OC`, the IC50 is 450 nM in assay [1]; 330 nM in assay [2]; 530 nM in assay [3]; 340 nM in assay [4]; more than 30000 nM in assay [5].

For `COc1cc(/C=C\c2ccc3ccccc3c2)ccc1F`, the 50% inhibitory concentration (IC50) in assay [1] is 450 nM; in assay [6], 450 nM; in assay [7], 450 nM; in assay [3], 450 nM; in assay [8], 450 nM; in assay [5] it was more than 30000 nM.

These data come from ChEMBL document CHEMBL1145177, “Further naphthylcombretastatins. An investigation on the role of the naphthalene moiety” (J Med Chem, 2005).
